# Several values for one entry are separate records, joined by “and”; a condition that tells them apart may be missing. Identical values can stand only once. Like-named read-outs stand apart in the source and are kept apart here.
# Assays:
# [1] = in vivo; conditions: BALB/c, mouse
# [2] = system: SARS-CoV, strain Urbani; test: microbe, parasite or virus in culture; type: cell-based, Severe acute respiratory syndrome coronavirus
# [3] = system: SARS-CoV (Urbani); set-up: species or system BALB/c mice; conditions: mouse, in vivo
# [4] = system: SARS-CoV, strain Urbani; test: microbe, parasite or virus in culture; type: cell-based; conditions: Severe acute respiratory syndrome coronavirus; for IC50: Vero 76, read-out: NR assay IC50
# [5] = in vitro; conditions: African green monkey
# [6] = in vitro; conditions: African green monkey, NR assay CC50
# [7] = system: Vero 76 cells; conditions: African green monkey
# [8] = system: SARS-CoV; conditions: cited from earlier work
# [9] = system: cytokines in lung homogenates; set-up: species or system BALB/c mice; conditions: mouse, in vivo
# [10] = Severe acute respiratory syndrome coronavirus, Vero 76, read-out: Virus yield reduction assay IC90
SMILES,MTD [1],"IC90 [2, 10]","Virus titer ± S.D., Day 3 [3]","Virus titer ± S.D., Day 7 [3]",IC50 [4],also measured
"C#Cc1c(C(N)=O)ncn1[C@@H]1O[C@H](CO)[C@@H](O)[C@H]1O [EICAR, 5-ethynyl-1-β-D-ribofuranosylimidazole-4-carboxamide]",75 mg/kg,> 40 µM,5.5 ± 0.5 log10 CCID50/g and 5.3 ± 0.3 log10 CCID50/g,0 log10 CCID50/g,28 µM,–
"COc1c(C)c2c(c(O)c1C/C=C(\C)CCC(=O)O)C(=O)OC2 [MPA, mycophenolic acid]",75 mg/kg,–,5.5 ± 0.2 log10 CCID50/g and 5.3 ± 0.5 log10 CCID50/g,0 log10 CCID50/g,> 30 µM,–
"NC(=O)c1ncn([C@@H]2O[C@H](CO)[C@@H](O)[C@H]2O)c1O [Mizoribine, mizoribine]",25 mg/kg,–,4.9 ± 0.3 log10 CCID50/g and 4.7 ± 0.6 log10 CCID50/g,0 log10 CCID50/g,> 40 µM,–
NC(=O)c1ncn([C@@H]2O[C@H](COP(=O)(O)O)[C@@H](O)[C@H]2O)n1 [Ribavirin monophosphate],–,–,–,–,> 30 µM,–
"NC(=O)c1ncn([C@@H]2O[C@H](CO)[C@@H](O)[C@H]2O)n1 [Ribavirin, ribavirin]",–,560 µM,–,–,320 µM,"CC50 [5]: 283 µM; CC50 [6]: 402 µM; EC90 ([2]; Severe acute respiratory syndrome coronavirus, Caco-2, read-out: EC90 by virus yield reduction assay): 4100 µM; EC90 ([2]; Severe acute respiratory syndrome coronavirus, MA104, read-out: EC90 by virus yield reduction assay): 225 µM; IC90 ([2]; read-out: Virus yield reduction assay IC90): 590 µM; average CC50 [7]: ~1685 µg/mL; IC50 [8]: 2 to 60 µg/mL; Virus in the lungs of mice sacrificed at day 7 [3]: virus was not detected; Virus titer ([3]; 75 mg/kg): 0 log10 CCID50/g; Virus titer ([3]; ip, 20 mg/kg): 0 log10 CCID50/g; EC50 ([4]; Vero 76, read-out: EC50 by neutral red uptake assay, n = 4): 270 ± 50 µM; GM-CSF level in lung homogenate [9]: 7.9 ± 1.9 pg/mL and 10.7 ± 0.9 pg/mL and 7.9 ± 0.5 pg/mL and 15.7 ± 4.2 pg/mL; IL-4 level in lung homogenate [9]: 5.9 ± 3.5 pg/mL and 6.3 ± 0.3 pg/mL and 4.9 ± 0.9 pg/mL and 7.3 ± 0.5 pg/mL; IL-5 level in lung homogenate [9]: 25.6 ± 2.0 pg/mL and 34.2 ± 2.1 pg/mL and 19.8 ± 1.7 pg/mL and 33.4 ± 0.4 pg/mL; IL-9 level in lung homogenate [9]: 134.2 ± 39.3 pg/mL and 140.9 ± 6.7 pg/mL and 101.5 ± 25.7 pg/mL and 126.3 ± 67.6 pg/mL"
"N=C(N)c1ncn([C@@H]2O[C@H](CO)[C@@H](O)[C@H]2O)n1 [Viramidine, viramidine]",–,–,–,–,> 410 µM,–

# From paper PMC7114261 (Antiviral Research, 2006)
